Experimental data: patent publication US5892113A, “Hydroxyethyl aminimides” (priority 1997, dated 1999)
pKi: −log10 of the molar value.

Target: T1, HIV-1 protease (HIV-1 M:B_ARV2/SF2, UniProt P03369, C557X/C585X)
T1 construct: aminobutyric acid at 67 and 95, thioester at 51-52; NovaBiochem kit
Assay: Fluorometric HIV-1 protease inhibition assay (NovaBiochem kit, fluorogenic substrate)
Format: biochemical
Description: The inhibition constant (Ki) of compound Ia is determined using HIV-1 protease kit supplied by NovaBiochem (cat. #10-39-0001, which supplies a solid phase synthesized analog of the protease, incorporating the unnatural residue aminobutyric acid in place of both cysteine residues 67 and 95, along with a thioester linkage in place of the normal peptide bond between residues 51-52). A fluorometric assay is performed using a fluorogenic substrate supplied by NovaBiochem (cat. #05-23-5216, Abz-Thr-Ile-Nle-Phe(NO2)-Gln-Arg-NH2). Initial rates of substrate hydrolysis are determined by following the increase in the fluorescence emission at 420 nm (excitation is at 325 nm) as the substrate is digested by the protease. The initial rates of substrate cleavage is determined in the absence and presence of compound Ia (up to a concentration of Ia=500 nM).

CC(C)(C)OC(=O)N[C@@H](Cc1ccccc1)[C@@H](O)C[N+](C)(Cc1ccccc1)[N-]C(=O)c1ccccc1 (single isomer, unassigned) [Ia]
mode of inhibition (Lineweaver-Burk analysis) (initial rates of substrate cleavage in absence and presence of Ia (up to 500 nM)): classical competitive inhibition
pKi (read-out: inhibition constant (Ki), synthetic HIV-1 protease analog (NovaBiochem), substrate Abz-Thr-Ile-Nle-Phe(NO2)-Gln-Arg-NH2, replot of Lineweaver-Burk slopes, Ia up to 500 nM): 6.86
